US6458838B1, “Adrenoleukodystrophy treatments” (Johns Hopkins University, priority 1999, dated 2002)
Entries after “also recorded” stand apart in the source; their conditions may differ.

Assays:
[1] = tested on: human primary fibroblasts derived from X-ALD patients; experiment: VLCFA (C24:0, C26:0) levels in cultured cells, capillary GC; format: cell-based
Excerpt: (§1) The genotypes of the X-ALD patients included missense, nonsense, frame shift and deletion mutations and all of the main clinical phenotypes.
After two days of treatment, a time-dependent reduction in VLCFA levels in human and mouse X-ALD cell lines was observed. In human lymphoblastoid cells and mouse fibroblasts, C24:0 and C26:0 levels were normalized within 10 days of treatment, In human X-ALD fibroblasts, C24:0 levels were normalized within 10 days, whereas C26:0 levels were reduced by 47% after 22 days. The results obtained were independent of genotype or phenotype.
Cell culture and 4-PBA treatment. Cell lines derived from X-ALD patients and X-ALD mice were grown in MEM (fibroblasts) or RPMI (ymphoblastoid cells) supplemented with fetal calf serum (10%), penicillin (100 U/ml), streptomycin (100 U/mi) and glutamine (2 mM). […]
Biochemical measurements. […] C24:0 β-oxidation activity of human and mouse fibroblasts and human lymphoblastoid cells was determined by measuring their capacity to degrade [1-^14C]-C24:0 fatty acid (American Radiolabeled Chemicals, St Louis, Mo.) to water-soluble products as described. Phytanic acid oxidation was measured as described. Cells were incubated with [2,3-^3H]-phytanic acid for 24 hours, and the release of ^3H-H2O to the aqueous medium was determined (activity in pmol/hr per mg protein).

[2] = tested on: human lymphoblastoid cells (EBV-transformed lymphocytes) derived from X-ALD patients; experiment: as above; format: cell-based; conditions: for C26:0 Percent Correction: 5 mM 4PBA
Method: as §1
Cell lines derived from X-ALD patients and X-ALD mice were grown in MEM (fibroblasts) or RPMI (ymphoblastoid cells) supplemented with fetal calf serum (10%), penicillin (100 U/ml), streptomycin (100 U/mi) and glutamine (2 mM). […] Cells in the second flask were grown without drug for the same length of time and served as controls. The media were changed every 3-4 days.
Biochemical measurements. […] For VLCFA measurements, total lipids were extracted, converted to methyl esters, purified by TLC and subjected to capillary GC analysis as described. Duplicate assays were set up independently and were assayed on different days. C24:0 β-oxidation activity of human and mouse fibroblasts and human lymphoblastoid cells was determined by measuring their capacity to degrade [1-^14C]-C24:0 fatty acid (American Radiolabeled Chemicals, St Louis, Mo.) to water-soluble products as described. Phytanic acid oxidation was measured as described. Cells were incubated with [2,3-^3H]-phytanic acid for 24 hours, and the release of ^3H-H2O to the aqueous medium was determined (activity in pmol/hr per mg protein).

[3] = tested on: ALDR mRNA; experiment: Semi-quantitative RT-PCR in primary fibroblasts; format: cell-based; conditions: 5 mM 4-PBA for 2 days
Method: (§2) Semi-quantitative RT-PCR was done on the mRNA isolated from these cells (FIG. 1). […] In addition, the expression of acyl-CoA oxidase (AOX), the rate-limiting enzyme in VLCFA β-oxidation, was not affected. Although previous studies have reported that ALDR mRNA was not detectable in fibroblasts by either northern or RT-PCR analyses, those RT-PCR studies used about 66 ng of CDNA; we used about 250 ng of cDNA.
(§3) Semi-quantitative RT-PCR analysis. Total RNA from tissue culture cells (10^6-10^7 cells/sample) was isolated using TRizol Reagent™ (Life Technologies), treated with DNase I (100-200 units in 40 mM HCI, 10 mM NaCl, 6 mM MgCl2, pH 7.3), incubated at 37° C. for 30 min, extracted with phenol/chloroform, and precipitated with isopropanol. cDNA was generated using MMLV reverse transcriptase (RT) (Life Technologies). PCR was done in the linear range of amplification (determined for each primerpair-cDNA combination). For each cDNA sample, a ‘cocktail’ was prepared, containing PCR buffer (Promega), 200 µM of each DNTP, 1.5 mM MgCl2, 250 ng cDNA, 0.25 U of Taq polymerase (Promega) and […]. The ‘cocktail’ was divided into separate tubes containing cDNA specific primers.
Primers. The PCR primers used are listed below. In the parentheses, h indicates human and m, mouse; this is followed by the gene name, product size and annealing temperature. […]

[4] = tested on: acyl-CoA oxidase (AOX); experiment: Semi-quantitative RT-PCR in primary fibroblasts; format: cell-based; conditions: 5 mM 4-PBA
Method: as §2
In rodents PPARα expression is increased by peroxisomal proliferators. […] Thus, although the peroxisome proliferation response in mice may be, at least in part, through the documented PPARα pathway, the response in human cells seems to be through a newly discovered pathway that may involve Pex11α. […] This again indicates a newly discovered pathway for 4-PBA-induced peroxisome proliferation in humans and perhaps in rodents. AOX has been identified as the rate-limiting step in VLCFA β-oxidation.
as §3
(§4) Primers. The PCR primers used are listed below. In the parentheses, h indicates human and m, mouse; this is followed by the gene name, product size and annealing temperature. For primer sequences, F is forward and R is reverse. […]

[5] = tested on: Pex11α; experiment: Semi-quantitative RT-PCR in primary fibroblasts; format: cell-based
Method: as §3, §4

[6] = tested on: patients with urea cycle disorders; conditions: used for many years; cited from earlier work

Q: With `O=C(O)CCCc1ccccc1` [4-PBA, 4-Phenyl butyrate] as the molecule, how does the “C26:0 levels reduced by” value ([1]; 5 mM 4-PBA, after 22 days) read?
A: 47%

Q: And the “effect of concentration on VLCFA levels” value ([1]; between 1 mM and 5 mM 4-PBA, human X-ALD fibroblasts and lymphoblastoid cells, data not shown)?
A: dose-dependent decrease

Q: And the “time of treatment until C24:0 and C26:0 levels were normalized” value ([2]; 5 mM 4-PBA)?
A: ≤ 10 days

Q: What about the “C26:0 Percent Correction” value ([2]; exposure 6 days) of the same molecule?
A: 71%

Q: What about the “C26:0 Percent Correction” value ([2]; exposure 10 days) of the same molecule?
A: 90%

Q: And the “ALDR mRNA levels” value ([3]; normal and X-ALD human primary fibroblasts)?
A: substantial increase

Q: What about the “ALDR mRNA levels” value ([3]; normal and X-ALD mouse primary fibroblasts) of the same molecule?
A: substantial increase

Q: And the AOX expression ([4]; human fibroblasts, 2 days)?
A: not affected; also recorded: unchanged

Q: What about the AOX expression ([4]; human fibroblasts, 10 days) of the same molecule?
A: remained unchanged

Q: And the AOX expression ([4]; mouse fibroblasts, 2 days)?
A: not affected; also recorded: unchanged

Q: And the Pex11α expression ([5]; human fibroblasts, 5 mM 4-PBA, after 2 days)?
A: substantial increase

Q: And the Pex11α transcripts ([5]; normal or X-ALD mouse fibroblasts, before or after 10 day exposure to 5 mM 4-PBA, data not shown)?
A: undetectable

Q: And the side effects [6]?
A: few, if any, side effects
